Results as given in ChEMBL document CHEMBL4028801, “A multifactorial approach to hepatobiliary transporter assessment enables improved therapeutic compound development” (Toxicol Sci, 2013).

Tests used:
[1] = Ratio of drug concentration at steady state in human at 200 to 600 mg, po QD after 24 hrs to IC50 for human MRP3 overexpressed in Sf9 insect cells; type: ADME, organism-based; conditions: in vivo
[2] = Drug concentration at steady state in human at 200 to 600 mg, po QD after 24 hrs; type: ADME, organism-based; conditions: in vivo, read-out: Css
[3] = Ratio of drug concentration at steady state in human at 200 to 600 mg, po QD after 24 hrs to IC50 for human BSEP overexpressed in Sf9 insect cells; type: ADME, organism-based; conditions: in vivo
[4] = molecular target: Bile salt export pump (Homo sapiens, UniProt O95342); test: Inhibition of human BSEP overexpressed in Sf9 cell membrane vesicles assessed as uptake of [3H]-taurocholate in presence of ATP measured after 15 to 20 mins by membrane vesicle transport assay; type: ADME, cell-based
Chain of Bile salt export pump (O95342 whole entry): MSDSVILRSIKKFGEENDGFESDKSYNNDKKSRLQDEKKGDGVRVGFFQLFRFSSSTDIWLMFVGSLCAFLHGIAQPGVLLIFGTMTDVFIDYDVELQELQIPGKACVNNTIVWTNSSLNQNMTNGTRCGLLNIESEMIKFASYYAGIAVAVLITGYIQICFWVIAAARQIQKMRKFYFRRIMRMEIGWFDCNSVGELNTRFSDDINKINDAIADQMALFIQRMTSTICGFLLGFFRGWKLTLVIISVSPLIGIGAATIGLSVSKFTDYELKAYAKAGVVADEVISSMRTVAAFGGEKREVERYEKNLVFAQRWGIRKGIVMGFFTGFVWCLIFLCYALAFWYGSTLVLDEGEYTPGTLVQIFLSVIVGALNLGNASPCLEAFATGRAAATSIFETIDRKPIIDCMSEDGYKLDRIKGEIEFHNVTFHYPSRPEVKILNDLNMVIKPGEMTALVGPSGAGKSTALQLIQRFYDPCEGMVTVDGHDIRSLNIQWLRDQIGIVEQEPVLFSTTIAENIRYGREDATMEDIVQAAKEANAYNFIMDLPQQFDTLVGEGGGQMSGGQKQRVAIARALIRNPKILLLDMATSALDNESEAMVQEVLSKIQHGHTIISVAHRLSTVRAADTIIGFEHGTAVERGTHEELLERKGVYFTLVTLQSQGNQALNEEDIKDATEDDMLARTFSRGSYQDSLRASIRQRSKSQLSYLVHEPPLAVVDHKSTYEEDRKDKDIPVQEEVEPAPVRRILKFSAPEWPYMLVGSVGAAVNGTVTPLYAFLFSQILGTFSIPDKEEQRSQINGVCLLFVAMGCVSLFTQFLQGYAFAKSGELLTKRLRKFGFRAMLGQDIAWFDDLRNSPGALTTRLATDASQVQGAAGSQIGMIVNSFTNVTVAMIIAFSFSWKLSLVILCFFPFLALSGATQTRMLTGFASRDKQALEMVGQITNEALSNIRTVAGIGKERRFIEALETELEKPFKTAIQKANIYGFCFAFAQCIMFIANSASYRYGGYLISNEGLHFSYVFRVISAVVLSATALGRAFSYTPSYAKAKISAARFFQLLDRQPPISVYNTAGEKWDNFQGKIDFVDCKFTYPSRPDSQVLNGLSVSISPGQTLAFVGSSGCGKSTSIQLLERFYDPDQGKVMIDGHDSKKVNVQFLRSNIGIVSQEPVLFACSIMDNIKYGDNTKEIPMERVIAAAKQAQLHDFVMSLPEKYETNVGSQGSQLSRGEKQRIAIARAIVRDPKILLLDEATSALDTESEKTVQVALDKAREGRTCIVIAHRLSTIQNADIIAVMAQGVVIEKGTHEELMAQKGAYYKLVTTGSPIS

[5] = Ratio of drug concentration at steady state in human at 200 to 600 mg, po QD after 24 hrs to IC50 for human MRP4 overexpressed in Sf9 insect cells; type: ADME, organism-based; conditions: in vivo
[6] = molecular target: T1, ATP-binding cassette sub-family C member 4 (Homo sapiens, UniProt O15439); test: Inhibition of human MRP4 overexpressed in Sf9 cell membrane vesicles assessed as uptake of [3H]-estradiol-17beta-D-glucuronide in presence of ATP and GSH measured after 20 mins by membrane vesicle transport assay; type: ADME, cell-based
T1 sequence (O15439 whole entry): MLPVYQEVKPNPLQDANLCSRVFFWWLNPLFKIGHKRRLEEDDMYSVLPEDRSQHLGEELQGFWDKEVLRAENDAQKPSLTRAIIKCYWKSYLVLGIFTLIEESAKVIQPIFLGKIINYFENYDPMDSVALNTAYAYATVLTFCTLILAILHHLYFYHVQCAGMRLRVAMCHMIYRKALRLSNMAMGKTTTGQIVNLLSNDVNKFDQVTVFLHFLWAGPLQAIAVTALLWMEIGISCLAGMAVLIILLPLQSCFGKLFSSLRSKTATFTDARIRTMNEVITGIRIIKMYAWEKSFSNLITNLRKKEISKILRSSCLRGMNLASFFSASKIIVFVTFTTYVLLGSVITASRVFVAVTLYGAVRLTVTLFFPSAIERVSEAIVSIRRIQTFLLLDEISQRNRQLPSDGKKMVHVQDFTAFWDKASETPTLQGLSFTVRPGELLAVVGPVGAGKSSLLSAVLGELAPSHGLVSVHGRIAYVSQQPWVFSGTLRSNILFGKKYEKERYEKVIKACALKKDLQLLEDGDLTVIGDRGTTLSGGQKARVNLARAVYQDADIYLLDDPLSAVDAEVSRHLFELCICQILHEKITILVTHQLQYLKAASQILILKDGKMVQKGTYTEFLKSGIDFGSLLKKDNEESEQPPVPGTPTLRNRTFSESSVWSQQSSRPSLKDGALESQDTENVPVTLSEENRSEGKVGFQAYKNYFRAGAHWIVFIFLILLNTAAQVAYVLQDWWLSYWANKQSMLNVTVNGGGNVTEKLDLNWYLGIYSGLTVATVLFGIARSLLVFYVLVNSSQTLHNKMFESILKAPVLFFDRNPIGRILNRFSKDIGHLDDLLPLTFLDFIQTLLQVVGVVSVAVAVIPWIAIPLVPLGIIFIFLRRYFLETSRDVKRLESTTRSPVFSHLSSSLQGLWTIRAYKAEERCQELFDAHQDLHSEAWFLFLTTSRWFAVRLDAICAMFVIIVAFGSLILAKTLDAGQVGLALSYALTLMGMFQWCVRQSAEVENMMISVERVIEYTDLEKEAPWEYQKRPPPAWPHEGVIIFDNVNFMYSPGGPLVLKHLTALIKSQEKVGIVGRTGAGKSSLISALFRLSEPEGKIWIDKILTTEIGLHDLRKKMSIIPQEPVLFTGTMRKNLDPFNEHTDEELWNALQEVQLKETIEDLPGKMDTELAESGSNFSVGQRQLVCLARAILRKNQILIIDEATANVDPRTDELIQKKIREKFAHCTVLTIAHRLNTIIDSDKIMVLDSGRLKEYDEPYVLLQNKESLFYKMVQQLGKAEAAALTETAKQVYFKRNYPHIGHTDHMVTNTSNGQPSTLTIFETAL

[7] = AUC in human at 200 to 600 mg, po QD after 24 hrs; type: ADME, organism-based; conditions: in vivo
[8] = molecular target: ATP-binding cassette sub-family C member 3 (Homo sapiens, UniProt O15438); test: Inhibition of human MRP3 overexpressed in Sf9 insect cell membrane vesicles assessed as uptake of [3H]-estradiol-17beta-D-glucuronide in presence of ATP and GSH measured after 10 mins by membrane vesicle transport assay; type: ADME, cell-based
Chain of ATP-binding cassette sub-family C member 3 (O15438 whole entry): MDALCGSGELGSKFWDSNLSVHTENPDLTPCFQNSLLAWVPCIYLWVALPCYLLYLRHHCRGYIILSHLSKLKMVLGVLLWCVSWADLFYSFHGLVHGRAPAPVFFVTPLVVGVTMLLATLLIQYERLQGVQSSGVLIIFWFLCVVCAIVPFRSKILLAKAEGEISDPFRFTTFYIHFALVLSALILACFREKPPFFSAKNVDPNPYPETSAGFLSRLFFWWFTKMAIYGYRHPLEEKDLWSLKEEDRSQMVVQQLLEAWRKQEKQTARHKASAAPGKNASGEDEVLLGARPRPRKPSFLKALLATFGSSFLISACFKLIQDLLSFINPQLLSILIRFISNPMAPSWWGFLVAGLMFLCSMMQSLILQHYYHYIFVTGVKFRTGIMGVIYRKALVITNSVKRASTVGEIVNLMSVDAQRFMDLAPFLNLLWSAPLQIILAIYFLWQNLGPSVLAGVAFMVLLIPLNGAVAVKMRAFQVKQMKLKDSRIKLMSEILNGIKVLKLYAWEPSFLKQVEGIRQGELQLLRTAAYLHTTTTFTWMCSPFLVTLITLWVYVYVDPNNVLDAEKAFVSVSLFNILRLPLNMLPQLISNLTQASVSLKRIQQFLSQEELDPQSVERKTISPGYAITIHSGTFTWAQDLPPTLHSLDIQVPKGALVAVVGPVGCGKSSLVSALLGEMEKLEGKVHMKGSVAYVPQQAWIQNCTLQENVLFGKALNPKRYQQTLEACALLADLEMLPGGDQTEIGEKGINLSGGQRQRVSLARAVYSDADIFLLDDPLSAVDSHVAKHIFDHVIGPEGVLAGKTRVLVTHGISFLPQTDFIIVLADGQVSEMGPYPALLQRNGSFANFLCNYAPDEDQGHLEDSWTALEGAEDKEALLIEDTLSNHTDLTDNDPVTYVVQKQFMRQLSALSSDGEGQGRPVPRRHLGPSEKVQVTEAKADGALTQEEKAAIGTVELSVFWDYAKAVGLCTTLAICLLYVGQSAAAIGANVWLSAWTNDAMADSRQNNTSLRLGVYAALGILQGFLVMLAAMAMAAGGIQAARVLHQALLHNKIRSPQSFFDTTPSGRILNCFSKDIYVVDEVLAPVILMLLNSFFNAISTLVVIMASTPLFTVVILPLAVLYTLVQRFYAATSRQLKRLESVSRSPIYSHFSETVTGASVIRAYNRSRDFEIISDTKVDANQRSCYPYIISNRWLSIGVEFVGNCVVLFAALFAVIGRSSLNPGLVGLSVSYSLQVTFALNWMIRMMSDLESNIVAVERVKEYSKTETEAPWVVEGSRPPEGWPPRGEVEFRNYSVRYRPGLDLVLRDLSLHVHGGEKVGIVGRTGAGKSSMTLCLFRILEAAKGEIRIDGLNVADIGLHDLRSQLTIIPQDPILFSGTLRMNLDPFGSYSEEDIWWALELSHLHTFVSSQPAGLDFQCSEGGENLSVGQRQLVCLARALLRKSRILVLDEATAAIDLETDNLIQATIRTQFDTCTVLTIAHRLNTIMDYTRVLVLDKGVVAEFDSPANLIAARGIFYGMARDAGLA

[9] = Drug concentration at steady state in human at 150 to 300 mg, po QD after 24 hrs; type: ADME, organism-based; conditions: in vivo, read-out: Css
[10] = Ratio of drug concentration at steady state in human at 150 to 300 mg, po QD after 24 hrs to IC50 for human BSEP overexpressed in Sf9 insect cells; type: ADME, organism-based; conditions: in vivo
[11] = Ratio of drug concentration at steady state in human at 150 to 300 mg, po QD after 24 hrs to IC50 for human MRP4 overexpressed in Sf9 insect cells; type: ADME, organism-based; conditions: in vivo
[12] = Ratio of drug concentration at steady state in human at 150 to 300 mg, po QD after 24 hrs to IC50 for human MRP3 overexpressed in Sf9 insect cells; type: ADME, organism-based; conditions: in vivo
[13] = AUC in human at 150 to 300 mg, po QD after 24 hrs; type: ADME, organism-based; conditions: in vivo
[14] = AUC in human at 200 mg, po QD after 24 hrs; type: ADME, organism-based; parameters: time < 24 hr, dose 200 mg, route oral; conditions: in vivo
[15] = Ratio of drug concentration at steady state in human at 200 mg, po QD after 24 hrs to IC50 for human BSEP overexpressed in Sf9 insect cells; type: ADME, organism-based; conditions: in vivo
[16] = Drug concentration at steady state in human at 200 mg, po QD after 24 hrs; type: ADME, organism-based; conditions: in vivo, read-out: Css
[17] = Ratio of drug concentration at steady state in human at 200 mg, po QD after 24 hrs to IC50 for human MRP4 overexpressed in Sf9 insect cells; type: ADME, organism-based; conditions: in vivo
[18] = molecular target: ATP-binding cassette sub-family C member 2 (Homo sapiens, UniProt Q92887); test: Inhibition of human MRP2 overexpressed in Sf9 cell membrane vesicles assessed as uptake of [3H]-estradiol-17beta-D-glucuronide in presence of ATP and GSH measured after 20 mins by membrane vesicle transport assay
Chain of ATP-binding cassette sub-family C member 2 (Q92887 whole entry): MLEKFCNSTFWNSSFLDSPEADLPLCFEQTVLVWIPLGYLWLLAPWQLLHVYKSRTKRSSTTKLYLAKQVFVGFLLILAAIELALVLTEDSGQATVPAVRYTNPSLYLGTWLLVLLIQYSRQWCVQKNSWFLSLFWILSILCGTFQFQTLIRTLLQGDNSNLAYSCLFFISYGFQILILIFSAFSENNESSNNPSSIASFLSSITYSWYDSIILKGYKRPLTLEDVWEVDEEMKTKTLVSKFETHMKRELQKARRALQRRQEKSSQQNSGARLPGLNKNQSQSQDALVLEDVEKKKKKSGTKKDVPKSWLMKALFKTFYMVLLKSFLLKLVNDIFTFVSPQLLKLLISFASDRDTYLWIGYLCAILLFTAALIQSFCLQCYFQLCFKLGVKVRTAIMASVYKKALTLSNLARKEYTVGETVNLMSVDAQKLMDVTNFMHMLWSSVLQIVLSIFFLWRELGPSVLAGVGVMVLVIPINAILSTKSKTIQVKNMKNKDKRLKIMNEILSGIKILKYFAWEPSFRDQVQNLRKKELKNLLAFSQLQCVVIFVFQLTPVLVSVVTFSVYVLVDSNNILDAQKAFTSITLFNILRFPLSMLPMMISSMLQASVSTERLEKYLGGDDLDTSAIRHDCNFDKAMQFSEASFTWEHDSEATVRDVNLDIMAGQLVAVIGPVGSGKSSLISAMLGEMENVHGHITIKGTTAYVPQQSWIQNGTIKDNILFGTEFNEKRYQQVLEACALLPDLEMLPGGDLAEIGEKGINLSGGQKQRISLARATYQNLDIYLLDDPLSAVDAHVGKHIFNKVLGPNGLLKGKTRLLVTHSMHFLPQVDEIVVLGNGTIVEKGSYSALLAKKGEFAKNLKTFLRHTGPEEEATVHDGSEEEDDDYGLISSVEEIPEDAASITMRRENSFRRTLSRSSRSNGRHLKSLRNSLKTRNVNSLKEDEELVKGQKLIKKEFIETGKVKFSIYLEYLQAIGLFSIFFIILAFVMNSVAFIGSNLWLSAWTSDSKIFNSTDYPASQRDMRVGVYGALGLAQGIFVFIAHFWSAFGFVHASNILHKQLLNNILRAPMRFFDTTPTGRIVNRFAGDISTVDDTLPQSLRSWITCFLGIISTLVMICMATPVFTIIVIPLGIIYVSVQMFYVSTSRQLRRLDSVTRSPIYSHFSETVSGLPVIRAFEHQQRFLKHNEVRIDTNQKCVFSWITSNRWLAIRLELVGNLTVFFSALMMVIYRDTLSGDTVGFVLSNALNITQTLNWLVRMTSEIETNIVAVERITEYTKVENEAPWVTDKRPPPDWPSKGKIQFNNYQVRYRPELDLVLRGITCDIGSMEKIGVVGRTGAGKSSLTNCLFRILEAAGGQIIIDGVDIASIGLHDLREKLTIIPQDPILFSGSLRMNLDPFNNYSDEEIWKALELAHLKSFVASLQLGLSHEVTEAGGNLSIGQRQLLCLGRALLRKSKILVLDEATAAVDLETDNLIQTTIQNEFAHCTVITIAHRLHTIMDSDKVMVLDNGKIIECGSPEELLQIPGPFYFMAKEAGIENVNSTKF

[19] = Ratio of drug concentration at steady state in human at 80 to 600 mg, po QD after 24 hrs to IC50 for human BSEP overexpressed in Sf9 insect cells; type: ADME, organism-based; conditions: in vivo
[20] = Ratio of drug concentration at steady state in human at 80 to 600 mg, po QD after 24 hrs to IC50 for human MRP4 overexpressed in Sf9 insect cells; type: ADME, organism-based; conditions: in vivo
[21] = Drug concentration at steady state in human at 80 to 600 mg, po QD after 24 hrs; type: ADME, organism-based; conditions: in vivo, read-out: Css
[22] = AUC in human at 80 to 600 mg, po QD after 24 hrs; type: ADME, organism-based; conditions: in vivo
[23] = Ratio of drug concentration at steady state in human at 600 mg administered twice weekly followed by 600 mg administered once in a week measured after 84 hrs to IC50 for human MRP4 overexpressed in Sf9 insect cells; type: ADME; conditions: in vivo
[24] = Ratio of drug concentration at steady state in human at 600 mg administered twice weekly followed by 600 mg administered once in a week measured after 84 hrs to IC50 for human BSEP overexpressed in Sf9 insect cells; type: ADME; conditions: in vivo
[25] = Ratio of drug concentration at steady state in human at 600 mg administered twice weekly followed by 600 mg administered once in a week measured after 84 hrs to IC50 for human MRP3 overexpressed in Sf9 insect cells; type: ADME; conditions: in vivo
[26] = Drug concentration at steady state in human at 600 mg administered twice weekly followed by 600 mg administered once in a week measured after 84 hrs; type: ADME; conditions: in vivo, read-out: Css
[27] = AUC in human at 600 mg administered twice weekly followed by 600 mg administered once in a week measured after 84 hrs; type: ADME; parameters: dose 600 mg, time < 84 hr; conditions: in vivo
[28] = Ratio of drug concentration at steady state in human at 600 mg administered twice weekly followed by 600 mg administered once in a week measured after 84 hrs to IC50 for human MRP2 overexpressed in Sf9 insect cells; type: ADME; conditions: in vivo

## Cc1c(C)c2c(c(C)c1O)CCC(C)(COc1ccc(CC3SC(=O)NC3=O)cc1)O2 (stereo unspecified) [TROGLITAZONE]
[1]
  Ratio: 0.03
[2]
  concentration at 24 h: 939 nM
[3]
  Ratio: 0.313
[4]
  IC50: 3 µM
[5]
  Ratio: 0.015
[6]
  IC50: 61 µM
[7]
  AUC at 24 h: 22.5 µM·h
[8]
  IC50: 31 µM

## CCCCC1=NC2(CCCC2)C(=O)N1Cc1ccc(-c2ccccc2-c2nnn[nH]2)cc1 [IRBESARTAN]
[9]
  concentration at 24 h: 2200 nM
[10]
  Ratio: 0.301
[11]
  Ratio: 0.026
[4]
  IC50: 7.31 µM
[12]
  Ratio: 0.104
[6]
  IC50: 83.2 µM
[8]
  IC50: 21.1 µM
[13]
  AUC at 24 h: 52.9 µM·h

## CC(=O)N1CCN(c2ccc(OCC3COC(Cn4ccnc4)(c4ccc(Cl)cc4Cl)O3)cc2)CC1 (stereo unspecified) [KETOCONAZOLE]
[14]
  AUC at 24 h: 31.1 µM·h
[15]
  Ratio: 0.381
[6]
  IC50: 69 µM
[16]
  concentration at 24 h: 1300 nM
[17]
  Ratio: 0.019
[18]
  IC50: > 133 µM
[8]
  IC50: > 133 µM

## COc1ccc(/C=C/C(=O)Nc2ccccc2C(=O)O)cc1OC
[19]
  Ratio: 0.286
[4]
  IC50: 41.5 µM
[6]
  IC50: 1 µM
[20]
  Ratio: 11.849
[21]
  concentration at 24 h: 11800 nM
[18]
  IC50: > 133 µM
[8]
  IC50: > 133 µM
[22]
  AUC at 24 h: 284 µM·h

## CO[C@H]1/C=C/O[C@@]2(C)Oc3c(C)c(O)c4c(O)c(c(/C=N/N5CCN(C6CCCC6)CC5)c(O)c4c3C2=O)NC(=O)/C(C)=C\C=C\[C@H](C)[C@H](O)[C@@H](C)[C@@H](O)[C@@H](C)[C@H](OC(C)=O)[C@@H]1C [RIFAPENTINE]
[23]
  Ratio: 0.131
[24]
  Ratio: 0.474
[25]
  Ratio: 0.058
[4]
  IC50: 9.91 µM
[6]
  IC50: 35.9 µM
[18]
  IC50: 16.3 µM
[26]
  concentration at 84 h: 4700 nM
[8]
  IC50: 80.9 µM
[27]
  AUC at 84 h: 395 µM·h
[28]
  Ratio: 0.288
